In ChEMBL document CHEMBL3885881, “DrugMatrix”:

Organism: Rattus norvegicus
Test: DrugMatrix - Regimen: Daily Repeat
Assay type: toxicity, organism-based, Sprague-Dawley
Parameters: regimen Daily Repeat, gender Male, age 6-8 weeks
Conditions: in vivo, po, route oral GAVAGE, vehicle 100 % WATER; for ABSOLUTE BASOPHIL / ABSOLUTE EOSINOPHIL / ABSOLUTE LYMPHOCYTE / ABSOLUTE MONOCYTE / ABSOLUTE SEGMENTED NEUTROPHIL / BASOPHIL / EOSINOPHIL / ERYTHROCYTE COUNT / HEMATOCRIT / HEMOGLOBIN / LEUKOCYTE COUNT / LYMPHOCYTE / MEAN CORPUSCULAR HEMOGLOBIN / MEAN CORPUSCULAR HEMOGLOBIN CONCENTRATION / MEAN CORPUSCULAR VOLUME / MONOCYTE / NEUTROPHIL / NUCLEATED RED BLOOD CELLS / PLATELET COUNT: tissue Blood; for ALANINE AMINOTRANSFERASE / ALBUMIN / ALKALINE PHOSPHATASE / ASPARTATE AMINOTRANSFERASE / BLOOD UREA NITROGEN / CARBON DIOXIDE / CHLORIDE / CHOLESTEROL / CREATINE PHOSPHOKINASE / CREATININE / GLUCOSE / LACTATE DEHYDROGENASE / LIPASE / PHOSPHORUS / POTASSIUM / SODIUM / TOTAL BILIRUBIN / TOTAL PROTEIN / URIC ACID: tissue Plasma
[1] = 48 mg/kg, 72 h, dose level High, time 3 day
[2] = 48 mg/kg, 120 h, dose level High, time 5 day
[3] = […], 72 h, dose 3.2 mg/Kg, dose level Low, time 3 day
[4] = […], 120 h, dose 3.2 mg/Kg, dose level Low, time 5 day

With `O=C(c1ccccc1)c1ccc2n1CCC2C(=O)O` (configuration not stated) [KETOROLAC] the “ABSOLUTE BASOPHIL” value [1] was 0 CELLS/uL, the “ABSOLUTE EOSINOPHIL” value [1] was 209.67 CELLS/uL and the “ABSOLUTE LYMPHOCYTE” value [1] was 27063 CELLS/uL. The “ABSOLUTE MONOCYTE” value [1] was 1382.33 CELLS/uL, the “ABSOLUTE SEGMENTED NEUTROPHIL” value [1] was 3145 CELLS/uL and the BASOPHIL [1] was 0%. For the same compound, the EOSINOPHIL [1] was 0.67%, the “ERYTHROCYTE COUNT” value [1] was 3.97 x10E6/uL and the HEMATOCRIT [1] was 23.77%. For the same compound, the HEMOGLOBIN [1] was 9.13 G/DL, the “LEUKOCYTE COUNT” value [1] was 31.8 x10E3/uL and the LYMPHOCYTE [1] was 85%. For the same compound, the “MEAN CORPUSCULAR HEMOGLOBIN” value [1] was 23.5 pg, the “MEAN CORPUSCULAR HEMOGLOBIN CONCENTRATION” value [1] was 38.6 G/DL and the “MEAN CORPUSCULAR VOLUME” value [1] was 60.83 fL. For the same compound, the MONOCYTE [1] was 4.33%, the NEUTROPHIL [1] was 10% and the “NUCLEATED RED BLOOD CELLS” value [1] was 0.33 /100WBC. The “PLATELET COUNT” value [1] was 1452.33 x10E3/uL, the “ALANINE AMINOTRANSFERASE” value [1] was 19.67 u/L and the ALBUMIN [1] was 3.1 G/DL. For the same compound, the “ALKALINE PHOSPHATASE” value [1] was 170.33 u/L, the “ASPARTATE AMINOTRANSFERASE” value [1] was 55.33 u/L and the “BLOOD UREA NITROGEN” value [1] was 14 mg/dL. The “CARBON DIOXIDE” value [1] was 24 mmol/L, the CHLORIDE [1] was 105.33 MEQ/L and the CHOLESTEROL [1] was 64.67 mg/dL. The “CREATINE PHOSPHOKINASE” value [1] was 293 u/L, the CREATININE [1] was 0.19 mg/dL and the GLUCOSE [1] was 170 mg/dL. For the same compound, the “LACTATE DEHYDROGENASE” value [1] was 145.33 u/L, the LIPASE [1] was 7.67 u/L and the PHOSPHORUS [1] was 12.67 mg/dL. The POTASSIUM [1] was 7.45 MEQ/L, the SODIUM [1] was 144.47 MEQ/L and the “TOTAL BILIRUBIN” value [1] was 0.13 mg/dL. The “TOTAL PROTEIN” value [1] was 5.17 G/DL, the “URIC ACID” value [1] was 3 mg/dL and the “ABSOLUTE BASOPHIL” value [2] was 0 CELLS/uL. For the same compound, the “ABSOLUTE EOSINOPHIL” value [2] was 0 CELLS/uL, the “ABSOLUTE LYMPHOCYTE” value [2] was 14525.25 CELLS/uL and the “ABSOLUTE MONOCYTE” value [2] was 548.5 CELLS/uL. The “ABSOLUTE SEGMENTED NEUTROPHIL” value [2] was 4876.25 CELLS/uL, the BASOPHIL [2] was 0% and the EOSINOPHIL [2] was 0%. The “ERYTHROCYTE COUNT” value [2] was 4.52 x10E6/uL, the HEMATOCRIT [2] was 27.15% and the HEMOGLOBIN [2] was 10.4 G/DL. The “LEUKOCYTE COUNT” value [2] was 19.95 x10E3/uL, the LYMPHOCYTE [2] was 76.25% and the “MEAN CORPUSCULAR HEMOGLOBIN” value [2] was 23.03 pg. The “MEAN CORPUSCULAR HEMOGLOBIN CONCENTRATION” value [2] was 38.32 G/DL, the “MEAN CORPUSCULAR VOLUME” value [2] was 60.12 fL and the MONOCYTE [2] was 3.25%. The NEUTROPHIL [2] was 20.5%, the “NUCLEATED RED BLOOD CELLS” value [2] was 0.5 /100WBC and the “PLATELET COUNT” value [2] was 2011.5 x10E3/uL. The “ALANINE AMINOTRANSFERASE” value [2] was 73.25 u/L, the ALBUMIN [2] was 2.58 G/DL and the “ALKALINE PHOSPHATASE” value [2] was 411.75 u/L. The “ASPARTATE AMINOTRANSFERASE” value [2] was 294 u/L, the “BLOOD UREA NITROGEN” value [2] was 25.5 mg/dL and the “CARBON DIOXIDE” value [2] was 25.25 mmol/L. For the same compound, the CHLORIDE [2] was 102 MEQ/L, the CHOLESTEROL [2] was 70.5 mg/dL and the “CREATINE PHOSPHOKINASE” value [2] was 1478 u/L. For the same compound, the CREATININE [2] was 0.18 mg/dL, the GLUCOSE [2] was 115.25 mg/dL and the “LACTATE DEHYDROGENASE” value [2] was 533.75 u/L. It also gave an LIPASE [2] of 13.5 u/L, a PHOSPHORUS [2] of 13.42 mg/dL and a POTASSIUM [2] of 7.39 MEQ/L. The SODIUM [2] was 142.23 MEQ/L, the “TOTAL BILIRUBIN” value [2] was 0.18 mg/dL and the “TOTAL PROTEIN” value [2] was 5.4 G/DL. The “URIC ACID” value [2] was 2.45 mg/dL, the “ABSOLUTE BASOPHIL” value [3] was 0 CELLS/uL and the “ABSOLUTE EOSINOPHIL” value [3] was 59.33 CELLS/uL. For the same compound, the “ABSOLUTE LYMPHOCYTE” value [3] was 7885.33 CELLS/uL, the “ABSOLUTE MONOCYTE” value [3] was 273 CELLS/uL and the “ABSOLUTE SEGMENTED NEUTROPHIL” value [3] was 682.33 CELLS/uL. The BASOPHIL [3] was 0%, the EOSINOPHIL [3] was 0.67% and the “ERYTHROCYTE COUNT” value [3] was 5.54 x10E6/uL. The HEMATOCRIT [3] was 36.1%, the HEMOGLOBIN [3] was 13.73 G/DL and the “LEUKOCYTE COUNT” value [3] was 8.9 x10E3/uL. For the same compound, the LYMPHOCYTE [3] was 88.67%, the “MEAN CORPUSCULAR HEMOGLOBIN” value [3] was 24.83 pg and the “MEAN CORPUSCULAR HEMOGLOBIN CONCENTRATION” value [3] was 38.07 G/DL. For the same compound, the “MEAN CORPUSCULAR VOLUME” value [3] was 65.27 fL, the MONOCYTE [3] was 3% and the NEUTROPHIL [3] was 7.67%. The “NUCLEATED RED BLOOD CELLS” value [3] was 0 /100WBC, the “PLATELET COUNT” value [3] was 1257 x10E3/uL and the “ALANINE AMINOTRANSFERASE” value [3] was 47.67 u/L. For the same compound, the ALBUMIN [3] was 4.6 G/DL, the “ALKALINE PHOSPHATASE” value [3] was 439.67 u/L and the “ASPARTATE AMINOTRANSFERASE” value [3] was 96 u/L. For the same compound, the “BLOOD UREA NITROGEN” value [3] was 11.33 mg/dL, the “CARBON DIOXIDE” value [3] was 32.33 mmol/L and the CHLORIDE [3] was 102.5 MEQ/L. For the same compound, the CHOLESTEROL [3] was 64.67 mg/dL, the “CREATINE PHOSPHOKINASE” value [3] was 218 u/L and the CREATININE [3] was 0.17 mg/dL. For the same compound, the GLUCOSE [3] was 144.33 mg/dL, the “LACTATE DEHYDROGENASE” value [3] was 103.33 u/L and the LIPASE [3] was 9.33 u/L. For the same compound, the PHOSPHORUS [3] was 11.4 mg/dL, the POTASSIUM [3] was 6 MEQ/L and the SODIUM [3] was 148.9 MEQ/L. For the same compound, the “TOTAL BILIRUBIN” value [3] was 0.0667 mg/dL, the “TOTAL PROTEIN” value [3] was 6.63 G/DL and the “URIC ACID” value [3] was 0.43 mg/dL. The “ABSOLUTE BASOPHIL” value [4] was 0 CELLS/uL, the “ABSOLUTE EOSINOPHIL” value [4] was 0 CELLS/uL and the “ABSOLUTE LYMPHOCYTE” value [4] was 9946 CELLS/uL. For the same compound, the “ABSOLUTE MONOCYTE” value [4] was 214 CELLS/uL, the “ABSOLUTE SEGMENTED NEUTROPHIL” value [4] was 540 CELLS/uL and the BASOPHIL [4] was 0%. For the same compound, the EOSINOPHIL [4] was 0%, the “ERYTHROCYTE COUNT” value [4] was 6.18 x10E6/uL and the HEMATOCRIT [4] was 38.5%. For the same compound, the HEMOGLOBIN [4] was 14.07 G/DL, the “LEUKOCYTE COUNT” value [4] was 10.7 x10E3/uL and the LYMPHOCYTE [4] was 93%. For the same compound, the “MEAN CORPUSCULAR HEMOGLOBIN” value [4] was 22.77 pg, the “MEAN CORPUSCULAR HEMOGLOBIN CONCENTRATION” value [4] was 36.63 G/DL and the “MEAN CORPUSCULAR VOLUME” value [4] was 62.23 fL. For the same compound, the MONOCYTE [4] was 2%, the NEUTROPHIL [4] was 5% and the “NUCLEATED RED BLOOD CELLS” value [4] was 0 /100WBC. The “PLATELET COUNT” value [4] was 1155 x10E3/uL, the “ALANINE AMINOTRANSFERASE” value [4] was 40 u/L and the ALBUMIN [4] was 4.43 G/DL. For the same compound, the “ALKALINE PHOSPHATASE” value [4] was 422.33 u/L, the “ASPARTATE AMINOTRANSFERASE” value [4] was 70.67 u/L and the “BLOOD UREA NITROGEN” value [4] was 14.67 mg/dL. For the same compound, the “CARBON DIOXIDE” value [4] was 33.67 mmol/L, the CHLORIDE [4] was 102 MEQ/L and the CHOLESTEROL [4] was 81 mg/dL. For the same compound, the “CREATINE PHOSPHOKINASE” value [4] was 512.33 u/L, the CREATININE [4] was 0.16 mg/dL and the GLUCOSE [4] was 169.33 mg/dL. For the same compound, the “LACTATE DEHYDROGENASE” value [4] was 125 u/L, the LIPASE [4] was 9 u/L and the PHOSPHORUS [4] was 13.57 mg/dL. For the same compound, the POTASSIUM [4] was 6.98 MEQ/L, the SODIUM [4] was 147.2 MEQ/L and the “TOTAL BILIRUBIN” value [4] was 0.2 mg/dL. For the same compound, the “TOTAL PROTEIN” value [4] was 6.37 G/DL and the “URIC ACID” value [4] was 1.83 mg/dL.
